This assay concerns 945468-187-T-J3-PDC spheroids with HUVEC/MSC, viability. As to the kind of experiment: Anticancer human tumor 945468-187-T-J3-PDC patient-derived rectal carcinoma cell line growth inhibition [PI3K]. Particulars: for viability, T/C: stronger effect = lower value. The method, boiled down:
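Multi-cell spheroids combine tumor cells with HUVEC and human MSCs, treated with targeted agents alone or with inavolisib, alpelisib, duvelisib or copanlisib. Concentrations fall in half-log steps from at or near clinical Cmax, or from 10 microM where Cmax is unknown; viability read-out.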

The mark [1] stands for this setting: curve of first compound, second compound 0.0316 µM.
Where [2] appears, read: curve of first compound, second compound 0.1 µM.
Setting [3] is: curve of first compound, second compound 0.316 µM.
Setting [4] is: curve of first compound, second compound 1 µM.
[5] abbreviates: curve of first compound, second compound 3.16 µM.
[6] abbreviates: curve of first compound, second compound 10 µM.
The mark [7] stands for this setting: second compound 0.0316 µM, first compound 0.0316 µM.
[8] abbreviates: second compound 0.0316 µM, first compound 0.1 µM.
Where [9] appears, read: second compound 0.0316 µM, first compound 0.316 µM.
Setting [10] is: second compound 0.0316 µM, first compound 1 µM.
Where [11] appears, read: second compound 0.0316 µM, first compound 3.16 µM.
Setting [12] is: second compound 0.0316 µM, first compound 10 µM.
Where [13] appears, read: second compound 0.1 µM, first compound 0.0316 µM.
Setting [14] is: second compound 0.1 µM, first compound 0.1 µM.
The mark [15] stands for this setting: second compound 0.1 µM, first compound 0.316 µM.
Where [16] appears, read: second compound 0.1 µM, first compound 1 µM.
The mark [17] stands for this setting: second compound 0.1 µM, first compound 3.16 µM.
Where [18] appears, read: second compound 0.1 µM, first compound 10 µM.
[19] abbreviates: second compound 0.316 µM, first compound 0.0316 µM.
The mark [20] stands for this setting: second compound 0.316 µM, first compound 0.1 µM.
Where [21] appears, read: second compound 0.316 µM, first compound 0.316 µM.
Where [22] appears, read: second compound 0.316 µM, first compound 1 µM.
Where [23] appears, read: second compound 0.316 µM, first compound 3.16 µM.
Setting [24] is: second compound 0.316 µM, first compound 10 µM.
The mark [25] stands for this setting: second compound 1 µM, first compound 0.0316 µM.
The mark [26] stands for this setting: second compound 1 µM, first compound 0.1 µM.
The mark [27] stands for this setting: second compound 1 µM, first compound 0.316 µM.
The mark [28] stands for this setting: second compound 1 µM, first compound 1 µM.
Where [29] appears, read: second compound 1 µM, first compound 3.16 µM.
[30] abbreviates: second compound 1 µM, first compound 10 µM.
Setting [31] is: second compound 3.16 µM, first compound 0.0316 µM.
[32] abbreviates: second compound 3.16 µM, first compound 0.1 µM.
Where [33] appears, read: second compound 3.16 µM, first compound 0.316 µM.
[34] abbreviates: second compound 3.16 µM, first compound 1 µM.
The mark [35] stands for this setting: second compound 3.16 µM, first compound 3.16 µM.
Where [36] appears, read: second compound 3.16 µM, first compound 10 µM.
Setting [37] is: second compound 10 µM, first compound 0.0316 µM.
Where [38] appears, read: second compound 10 µM, first compound 0.1 µM.
[39] abbreviates: second compound 10 µM, first compound 0.316 µM.
[40] abbreviates: second compound 10 µM, first compound 1 µM.
Setting [41] is: second compound 10 µM, first compound 3.16 µM.
[42] abbreviates: second compound 10 µM, first compound 10 µM.

IC50 and viability, T/C data for 8 molecules are collected here from PubChem BioAssay AID1963968 (Molecular Pharmacology Branch, DTP, NCI, 2024).

For orientation: IC50 means the concentration needed to halve the response being measured. What is called viability, T/C is the ratio of treated to control.

Structures are written as SMILES. Several values for one entry are separate records, joined by “and”; a condition that tells them apart may be missing. Identical values can stand only once.
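Also: spheroids exposed to agents for 7 days before viability read.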
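For viability, T/C in this document: 100% = DMSO vehicle control viability.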

On to `C[C@@H](NC(=O)c1ncnc(N)c1Cl)c1ncc(C(=O)Nc2cc(C(F)(F)F)c(Cl)cn2)s1` + CC(Nc1ncnc2nc[nH]c12)c1cc2cccc(Cl)c2c(=O)n1-c1ccccc1, for which the IC50 by setting is: under setting [1], more than 10 µM; under setting [2], more than 10 µM; under setting [3], more than 10 µM; under setting [4], more than 10 µM; under setting [5], more than 10 µM; under setting [6], more than 10 µM. Also, the viability, T/C under setting [7] is 98%; the viability, T/C under setting [8] was 87.3%; the viability, T/C under setting [9] is 95.9%; the viability, T/C under setting [10] is 101%; the viability, T/C under setting [11] was 104%; the viability, T/C under setting [12] is 105%. Moreover, the viability, T/C was 106% under setting [13]; 109% under setting [14]; 97.7% under setting [15]; 96.5% under setting [16]; 94.7% under setting [17]; 103% under setting [18]. The viability, T/C by setting is: under setting [19], 95.7%; under setting [20], 115%; under setting [21], 108%; under setting [22], 103%; under setting [23], 98.7%; under setting [24], 96.6%. Moreover, the viability, T/C was 101% under setting [25]; 101% under setting [26]; 103% under setting [27]; 96.2% under setting [28]; 102% under setting [29]; 86.5% under setting [30]. For the same molecule, the viability, T/C runs as follows: under setting [31], 104%; under setting [32], 105%; under setting [33], 92.7%; under setting [34], 106%; under setting [35], 96.4%; under setting [36], 96%. Also, the viability, T/C is 101% under setting [37]; 99.7% under setting [38]; 92.5% under setting [39]; 108% under setting [40]; 98.8% under setting [41]; 93.3% under setting [42].
Take `CNC(=O)c1ccc(N2C(=S)N(c3ccc(C#N)c(C(F)(F)F)c3)C(=O)C2(C)C)cc1F` + CC(Nc1ncnc2nc[nH]c12)c1cc2cccc(Cl)c2c(=O)n1-c1ccccc1: the IC50 under setting [1] is more than 10 µM; the IC50 under setting [2] is more than 10 µM; the IC50 under setting [3] was more than 10 µM; the IC50 under setting [4] was more than 10 µM; the IC50 under setting [5] is more than 10 µM; the IC50 under setting [6] is more than 10 µM. Besides, the viability, T/C under setting [7] is 101%; the viability, T/C under setting [8] was 113%; the viability, T/C under setting [9] is 98.4%; the viability, T/C under setting [10] is 102%; the viability, T/C under setting [11] was 98.4%; the viability, T/C under setting [12] is 100%. Further, the viability, T/C was 99.7% under setting [13]; 109% under setting [14]; 94.1% under setting [15]; 116% under setting [16]; 103% under setting [17]; 106% under setting [18]. In addition, the viability, T/C by setting is: under setting [19], 99.5%; under setting [20], 93.8%; under setting [21], 100%; under setting [22], 108%; under setting [23], 101%; under setting [24], 97.1%. Moreover, the viability, T/C by setting is: under setting [25], 96.5%; under setting [26], 102%; under setting [27], 107%; under setting [28], 106%; under setting [29], 105%; under setting [30], 94.8%. In addition, the viability, T/C is 102% under setting [31]; 113% under setting [32]; 95% under setting [33]; 107% under setting [34]; 92.9% under setting [35]; 110% under setting [36]. Besides, the viability, T/C was 99.5% under setting [37]; 99.2% under setting [38]; 107% under setting [39]; 99.2% under setting [40]; 105% under setting [41]; 109% under setting [42].
Regarding `CC(C)NCC(C(=O)N1CCN(c2ncnc3c2C(C)CC3O)CC1)c1ccc(Cl)cc1` (stereo not given), the viability, T/C is, setting by setting: (compound 0.0316 µM) 92.6% [middle of 4 runs]; (compound 0.316 µM) 100% [middle of 4 runs]; (compound 1 µM) 94.6% [middle of 4 runs]; (compound 3.16 µM) 65.2% [middle of 4 runs]; (compound 10 µM) 39.3% [middle of 4 runs].
Take `Cn1cnc2c(F)c(Nc3ccc(Br)cc3Cl)c(C(=O)NOCCO)cc21`: the viability, T/C (compound 0.00949 µM) is 103% [middle of 4 runs]; the viability, T/C (compound 0.03 µM) was 109% [middle of 4 runs]; the viability, T/C (compound 0.0949 µM) was 116% [middle of 4 runs]; the viability, T/C (compound 0.3 µM) was 119% (2×) and 99.5% and 130%; the viability, T/C (compound 0.949 µM) is 108% [middle of 4 runs]. Also, the IC50 (curve of compound) was more than 3 µM.
For the molecule `CNC(=O)c1ccc(N2C(=S)N(c3ccc(C#N)c(C(F)(F)F)c3)C(=O)C2(C)C)cc1F`, the viability, T/C runs as follows: (compound 0.0316 µM) 100% (2×) and 113% and 95%; (compound 0.1 µM) 108% [middle of 4 runs]; (compound 0.316 µM) 104% [middle of 4 runs]; (compound 3.16 µM) 113% (2×) and 102% and 121%; (compound 10 µM) 109% [middle of 4 runs]. The IC50 (curve of compound) was more than 10 µM.
Regarding `CCCS(=O)(=O)Nc1ccc(F)c(C(=O)c2c[nH]c3ncc(-c4ccc(Cl)cc4)cc23)c1F`, the viability, T/C runs as follows: (compound 0.0316 µM) 105% [middle of 4 runs]; (compound 0.1 µM) 97.1% [middle of 4 runs]; (compound 1 µM) 102% [middle of 4 runs]; (compound 3.16 µM) 103% [middle of 4 runs]. Also, the IC50 (curve of compound) was 6.88 µM [middle of 4 runs].
Regarding `C#Cc1c(F)ccc2cc(O)cc(-c3ncc4c(N5CC6CCC(C5)N6)nc(OCC56CCCN5CC(F)C6)nc4c3F)c12` (stereo not given), the viability, T/C by setting is: (compound 0.0316 µM) 96.4% [middle of 4 runs]; (compound 0.1 µM) 95.8% [middle of 4 runs]; (compound 0.316 µM) 98.2% [middle of 4 runs]; (compound 1 µM) 114% (2×) and 95.9% and 89.8%; (compound 3.16 µM) 125% [middle of 4 runs]; (compound 10 µM) 113% [middle of 4 runs]. Also, the IC50 (curve of compound) was more than 10 µM.
`Cc1nc(NC(=O)N2CCCC2C(N)=O)sc1-c1ccnc(C(C)(C)C(F)(F)F)c1` (stereo not given): the viability, T/C reads like this: (compound 0.0316 µM) 90% [middle of 7 runs]; (compound 0.1 µM) 96% [middle of 8 runs]; (compound 0.316 µM) 99.1% [middle of 8 runs]; (compound 1 µM) 103% [middle of 8 runs]; (compound 3.16 µM) 106% [middle of 8 runs]; (compound 10 µM) 62.1% [middle of 8 runs]. Further, the IC50 (compound alone, run of 06/12/2023) is more than 10 µM.
